For data set [1], the system named is macrophages. Briefly: Morphology of macrophages (photographs, Liu's staining). The data set is classed as cell-based, human. To be noted: for morphology and adhesion of treated macrophages: 10 μM, FIG. 1 panel B; for morphology of cells by Liu's staining compared with control cells: FIG. 1 panel C. Here is the method:
(§1) Mononuclear cells (MNCs) were separated from the peripheral blood of healthy donors obtained with written consent by use of Ficoll-Hypaque density centrifugation, followed by positive selection with magnetic anti-CD14 microbeads.
(§2) The isolated CD14^+ cells were cultivated in Minimum Essential Medium (MEM medium) supplemented with 10% fetal bovine serum (FBS), 100 ng/ml granulocyte-macrophage colony-stimulating factor (GM-CSF, Gentaur), and 50 ng/ml interleukin-4 (IL-4, R&D), and kept in an environment of 37° C. with 5% CO2/95% air.
(§3) To evaluate the effects of the present compound on dendritic cells, the CD14^+ cells were respectively treated with 10 μM of test compound (i.e., Mib-5, Mib-6, Mib-7, Mib-8, Mib-9, and Mib-10) on day 1. Then, on day 3, the cultured medium in each well was replenished by adding half the volume of the cultured medium containing the same treatment as indicated above. Then, on day 6, a cytokine cocktail containing IL-1, IL-6, and tumor necrosis factor-α (TNF-α) was added to induce maturation. On day 7, the differentiated dendritic cells were collected and subjected to further assays, including viability assay, morphology observation, and cell marker staining.
(§4) As to the effects of the present compound on macrophages, the CD14^+ cells were cultivated and treated as indicated above except the addition of cytokine cocktail on day 6. The macrophages were collected on day 6 and subjected to further assays, including viability assay, trypan blue exclusion test, morphology observation, cell marker staining, and phagocytotic activity analysis.
(§5) Cells were transferred to a glass coverslide and covered with solution A (0.5 g of methylene blue and 1.7 g of Eosin yellow dissolved in 1,000 ml of ethanol). After 45 seconds, solution B (1.3 g of azure, 1.4 g of methylene blue, 23.38 g of Na2HPO4, 6.5 g of KH2PO4, dissolved in 1,000 ml of distilled water) was added in the proportion of 2 parts of B to 1 part of A. Mixed the solutions well by blowing the surface. The slide was left standing for 90 seconds and then washed off the staining solution rapidly by running water. The morphology of stained cells was then examined under microscope.

Data set [2] concerns macrophages. Briefly: Trypan blue exclusion test on macrophages. It is filed as cell-based. The settings on record: trypan blue analysis, FIG. 2. The protocol:
as §1, §2, §3, §4
The dye exclusion test is used to determine the number of viable cells present in a cell suspension. […] In this test, the cells were first treated with a test compound (i.e., Mib-5, 6, 7, 8, 9 or 10) for a certain period of time (e.g., 72 hours), then the cells were harvested and re-suspended in suitable buffer solution. The cell suspension was then mixed with trypan blue dye and then visually examined to determine whether cells had taken up or excluded the dye. A viable cell will have a clear cytoplasm, whereas a nonviable cell will have a blue cytoplasm. The concentration required to reduce viability by 50% (IC50) after 72 hours was extrapolated from the dose-response curves by different concentrations of the test compound using a second-order polynomial regression model and analyzing with SigmaPlot Software (Systat Software Inc., San Jose, Calif.).

The test system of the next data set is dendritic cells. Briefly: Morphology of dendritic cells by Liu's staining. The data set is classed as cell-based, human. The settings on record: 10 μM, seven days, FIG. 8. Here is the method:
as §1, §2, §3, §5
In this example, the effects of the present compounds on dendritic cells were investigated. Briefly, the dendritic cells were respectively treated with 10 μM of Mib-5, Mib-6, Mib-7, Mib-8, or Mib-10. Seven days later, the cells were harvested and subjected to analysis of morphology observation, cell viability, and/or cell marker expression.

Data set [3] concerns skin allograft, C57BL/6 donors, BALB/c recipients. The experiment in a line: Skin allo-transplantation rejection model. The data set is classed as in vivo, mice. The settings on record: 10 mg/kg/day intraperitoneally, 20 days, FIG. 13. Here is the method:
Six- to eight-week-old male C57BL/6(H-2^b) and BALB/c(H-2^d) mice were purchased from the Animal Resource Center of the National Science Council of Taiwan (Taipei, Taiwan). All animal experiments were approved by the animal ethics committee of Mackay Memorial Hospital. Surgery for skin transplantation was performed with standardized procedures. In brief, a 2×1 cm full-thickness skin graft was harvested from the C57BL/6 donor mouse. A graft bed on the BALB/c recipient was prepared. The skin graft was sutured to the recipient's graft bed. Rejection was defined as necrosis of more than 80% of the epidermal surface of the graft. The tested agents included vehicle (as control), Mib-5 (10 mg/kg/day), Mib-7 (10 mg/kg/day) and rapamycin (1.5 mg/kg/day as positive control). Treatments were administered intraperitoneally daily for consecutive 20 days until rejection was observed.
The skin allo-transplantation model, by using C57BL/6(H-2^b) mice as donors and BALB/c(H-2^d) mice as recipients, was used to examine the effect of Mib-5 and Mib-7 on allograft survival, in which rapamycin served as a positive control.

A further data set has as its system M2 macrophages. The experiment in a line: Cell marker expression on M2 macrophages, flow cytometry. It is filed as cell-based, human. The settings on record: for CD14: M2 population after treatment: Table 5; for CD80: change in M2 population: Table 6; for CD206: change in M2: Table 7; for CD80 expression on M2 macrophages: control 47.64%; for CD14 expression on M2 macrophages: control 55.66%; for CD206 expression on M2 macrophages: control 74.49%. The protocol:
(§6) M1 differentiation of freshly isolated CD14^+ cells was induced by the addition of lipopolysaccharide (LPS), while M2 differentiation of freshly isolated CD14^+ cells was induced by the addition of IL-4. Then, the present compounds (e.g., Mib-5, 6, 7, 8, 9, or 10) were added at the indicated dosages. 6 days later, the population of the differentiated macrophages were then determined by cell viability analysis.
(§7) The expression of various types of cell markers, such as CD14, CD206, and CD80 expressed on the surface of macrophages, and CD1a, CD14, CD83, and HLA-DR expressed on the dendritic cells, were respectively detected by fluorescein isothiocyanate (FITC) and phycoerythrin (PE)-conjugated monoclonal antibodies in FACS caliber flowcytometer. Monoclonal antibodies used in this examples included anti-CD14 (IgG-FITC), anti-CD206 (IgG-FITC), anti-CD80-PE, anti-CD1a-PE, anti-CD83-PE and anti-human leukocyte antigen (HLA)-DR-PE. Results were analyzed by CellQuest software.

For data set [4], the system named is macrophages. The experiment in a line: Cell marker expression on macrophages (total), flow cytometry. The settings on record: for total expressed level of CD14: FIG. 3; for level of CD206: FIG. 5; for total level of CD80: compared with the control. The data set is classed as cell-based, human. The protocol: as §1, §2, §3, §4, §7
A further data set relates to M1 macrophages. The experiment in a line: Cell marker expression on M1 macrophages, flow cytometry. The data set is classed as cell-based, human. The settings on record: for CD14: M1 population after treatment: Table 5; for CD80: change in M1 population: Table 6; for CD206: change in M1: Table 7; for CD206 expression on M1 macrophages: control 14.27%; for CD80 expression on M1 macrophages: control 71.34%; for CD14 expression on M1 macrophages: control 99.83%. The protocol: as §6, §7

“Also recorded” adds a separate entry of the source.

The results in this text go back to US10745370B2, “Farnesyl transferase inhibitors and uses thereof” (MACKAY MEMORIAL HOSPITAL, priority 2016, dated 2020).

`COC1=CC(=O)[C@@]2(c3cc(=O)c4ccc(OC)cc4o3)[C@H](C[C@]3(C)[C@@H](C(=O)O)CC=C4[C@H]3CCCC4(C)C)C(C)=CC[C@H]2C1=O` [Mib-5]: in the data set with macrophages [1], the “morphology and adhesion of treated macrophages” value is “became rounded up, and were less adhesive”; the “morphology of cells by Liu's staining compared with control cells” value is given as “not significantly affected”. In addition, in the data set with macrophages [2], the “cell viability / cytotoxicity toward macrophages” value is “did not adversely affect cell viability; also recorded: no significant cytotoxicity”. The “dendritic cell morphology compared with control group” value in the data set with dendritic cells was “cell death reflected in morphology changes, and less dendritic process”. In addition, in data set [3], the “mean survival of skin allograft in recipient mice” value was “significantly prolonged”. For the same compound, in the data set on M2 macrophages, the “CD14: M2 population after treatment” value was “significant decrease”, the “CD80: change in M2 population” value was “increase”, the “CD206: change in M2” value is listed as “increase” and the “CD80 expression on M2 macrophages” value was found to be 53.03%. Also, in the data set with M2 macrophages, the “CD14 expression on M2 macrophages” value is reported as 80.33% and the “CD206 expression on M2 macrophages” value turned out to be 78.77%. Moreover, in the data set with macrophages [4], the “total expressed level of CD14” value is “not affected”, the “level of CD206” value was “increase” and the “total level of CD80” value is listed as “significantly reduced”. In the data set with M1 macrophages, the “CD14: M1 population after treatment” value was “remained relatively unchanged”, the “CD80: change in M1 population” value was “reduction”, the “CD206: change in M1” value is given as “significant decrease” and the “CD206 expression on M1 macrophages” value is 5.41%. Moreover, in the data set on M1 macrophages, the “CD80 expression on M1 macrophages” value is recorded as 11.94% and the “CD14 expression on M1 macrophages” value worked out at 97.03%.

Turning to `COC1=CC(=O)[C@@]2(c3cc(=O)c4c(O)cc(O)cc4o3)[C@H](C[C@]3(C)[C@@H](C(=O)O)CC=C4[C@H]3CCCC4(C)C)C(C)=CC[C@H]2C1=O` [Mib-7], in the data set on macrophages [1], the “morphology and adhesion of treated macrophages” value was “became rounded up, and were less adhesive”; the “morphology of cells by Liu's staining compared with control cells” value is “not significantly affected”. Moreover, the “cell viability / cytotoxicity toward macrophages” value in the data set on macrophages [2] is on record as “did not adversely affect cell viability; also recorded: no significant cytotoxicity”. Also, the “dendritic cell morphology compared with control group” value in the data set on dendritic cells is “cell death reflected in morphology changes, and less dendritic process”. In addition, the “mean survival of skin allograft in recipient mice” value in data set [3] was “significantly prolonged”. Further, in the data set on M2 macrophages, the “CD14: M2 population after treatment” value is on record as “significant decrease”, the “CD80: change in M2 population” value is on record as “increase”, the “CD206: change in M2” value is recorded as “increase” and the “CD80 expression on M2 macrophages” value worked out at 49.58%. In the data set on M2 macrophages, the “CD14 expression on M2 macrophages” value was 89.76% and the “CD206 expression on M2 macrophages” value amounted to 88.88%. In the data set with macrophages [4], the “total expressed level of CD14” value is reported as “not affected”, the “level of CD206” value is listed as “increase” and the “total level of CD80” value was “significantly reduced”. Further, in the data set on M1 macrophages, the “CD14: M1 population after treatment” value is listed as “remained relatively unchanged”, the “CD80: change in M1 population” value was “reduction”, the “CD206: change in M1” value is on record as “significant decrease” and the “CD206 expression on M1 macrophages” value is on record as 4.9%. Further, in the data set with M1 macrophages, the “CD80 expression on M1 macrophages” value is given as 23.04% and the “CD14 expression on M1 macrophages” value is given as 98.66%.
